In the NIST ThermoML archive (doi:10.1021/je800463k):
± gives the expanded uncertainty stated by the source.

Assay: mn = molality of the nth substance listed, in mol/kg
Conditions: 101 kPa, Liquid; for viscosity: 303.15 K; for mass density: Pycnometric method; for electrical conductivity / speed of sound: 308.15 K; for electrical conductivity: Frequency=0.001 MHz, Alternating current cell with electrodes; for speed of sound: Frequency=2 MHz

CC(=O)[O-].CC(=O)[O-].[Mg+2] [magnesium acetate] + CO
Conditions	electrical conductivity [S/m]	speed of sound [m/s]	viscosity [mPa·s]
m1 = 0.0059	0.0369 ± 0.0001	1070.1 ± 6.3	–
m1 = 0.0093	0.0592 ± 0.0001	1068.7 ± 6.3	–
m1 = 0.018	0.0674 ± 0.0001	1071.5 ± 6.3	–
m1 = 0.0339	0.0879 ± 0.0001	–	–
m1 = 0.053	0.103 ± 0.0001	1075.1 ± 6.3	–
m1 = 0.0646	0.112 ± 0.0001	–	–
m1 = 0.0855	0.1232 ± 0.0001	–	–
m1 = 0.1024	0.1326 ± 0.0001	–	–
m1 = 0.1402	0.151 ± 0.0001	–	–
m1 = 0.1455	0.1557 ± 0.0001	–	–
m1 = 0.1837	0.1631 ± 0.0001	–	–
m1 = 0.2422	0.1782 ± 0.0001	–	0.6232 ± 0.017
m1 = 0.2453	–	–	0.6232 ± 0.017
m1 = 0.2889	0.1835 ± 0.0001	–	0.642 ± 0.017

Conditions	mass density [kg/m3]
303.25 K, m1 = 0.2422	799.9 ± 8
303.45 K, m1 = 0.0339	786.42 ± 1.3
303.5 K, m1 = 0.014	784.74 ± 0.81
303.65 K, m1 = 0.2192	797.61 ± 7.3
303.75 K, m1 = 0.1112	791.73 ± 3.4
303.95 K, m1 = 0.053	786.54 ± 0.98
304.35 K, m1 = 0.3042	801.29 ± 5.3
304.6 K, m1 = 0.1402	792.72 ± 4.6
304.6 K, m1 = 0.1798	795.47 ± 4.2
304.6 K, m1 = 0.2003	795.91 ± 3.9
304.65 K, m1 = 0.0646	787.5 ± 2
304.75 K, m1 = 0.0855	787.76 ± 2.7
304.85 K, m1 = 0.2668	799.19 ± 4.6
304.9 K, m1 = 0.0093	782.5 ± 1
304.95 K, m1 = 0.0059	781.79 ± 0.87
305.3 K, m1 = 0.014	783.09 ± 0.94
305.5 K, m1 = 0.1455	792.24 ± 3.8
305.65 K, m1 = 0.053	784.95 ± 1.8
305.8 K, m1 = 0.2422	797.4 ± 4.7
305.95 K, m1 = 0.0339	783.96 ± 0.88
306.1 K, m1 = 0.3042	799.61 ± 5.2
306.15 K, m1 = 0.2192	795.21 ± 3.2
306.25 K, m1 = 0.1402	791.07 ± 3.9
306.3 K, m1 = 0.1112	789.29 ± 2.8
306.35 K, m1 = 0.2003	794.29 ± 2.5
306.4 K, m1 = 0.1798	793.8 ± 4.3
306.55 K, m1 = 0.0093	780.91 ± 1
306.65 K, m1 = 0.0059	780.15 ± 0.89
306.95 K, m1 = 0.2668	797.14 ± 3.5
307.1 K, m1 = 0.0646	785.07 ± 1.6
307.3 K, m1 = 0.053	783.25 ± 1.6
307.3 K, m1 = 0.1455	790.54 ± 4.9
307.35 K, m1 = 0.0855	785.26 ± 2.7
307.5 K, m1 = 0.2422	795.76 ± 8.2
307.7 K, m1 = 0.0339	782.34 ± 1.3
307.7 K, m1 = 0.3042	797.95 ± 5.3
307.75 K, m1 = 0.014	780.67 ± 0.85
307.8 K, m1 = 0.2192	793.51 ± 7.4
307.95 K, m1 = 0.1402	789.51 ± 3.7
